Earlier results, collected in publication PMC8537988, “Re-Use of Caco-2 Monolayers in Permeability Assays—Validation Regarding Cell Monolayer Integrity” (Pharmaceutics, 2021).

Test system: transporters in the membrane (influx or efflux)
Parameters: method as in PMID 9213361
Settings: cited from earlier work

Substance: Lucifer yellow CH di-potassium salt [LY]
- substrate of transporters in the membrane (influx or efflux): not a substrate of transporters in the membrane (influx or efflux)
